Test results published in ChEMBL document CHEMBL6114946, “Development and characterization of pyridyl carboxamides as potent and highly selective Nav1.8 inhibitors” (Bioorg Med Chem Lett, 2025).
Values after ≈ are worked out from the molar mass of the structure shown. Active and inactive are the calls of the source. The calls are words filed in the database; no cut-off is given here.

Assays:
[1] = biological target: T1, Sodium channel protein type 10 subunit alpha (Homo sapiens, UniProt Q9Y5Y9); assay: Inhibition of Nav1.8 (unknown origin) over expressed in HEK cells assessed as reduction in deltamethrin-stimulated channel activation by FLIPR assay; type: cell-based
Target sequence in this assay (Q9Y5Y9 whole entry): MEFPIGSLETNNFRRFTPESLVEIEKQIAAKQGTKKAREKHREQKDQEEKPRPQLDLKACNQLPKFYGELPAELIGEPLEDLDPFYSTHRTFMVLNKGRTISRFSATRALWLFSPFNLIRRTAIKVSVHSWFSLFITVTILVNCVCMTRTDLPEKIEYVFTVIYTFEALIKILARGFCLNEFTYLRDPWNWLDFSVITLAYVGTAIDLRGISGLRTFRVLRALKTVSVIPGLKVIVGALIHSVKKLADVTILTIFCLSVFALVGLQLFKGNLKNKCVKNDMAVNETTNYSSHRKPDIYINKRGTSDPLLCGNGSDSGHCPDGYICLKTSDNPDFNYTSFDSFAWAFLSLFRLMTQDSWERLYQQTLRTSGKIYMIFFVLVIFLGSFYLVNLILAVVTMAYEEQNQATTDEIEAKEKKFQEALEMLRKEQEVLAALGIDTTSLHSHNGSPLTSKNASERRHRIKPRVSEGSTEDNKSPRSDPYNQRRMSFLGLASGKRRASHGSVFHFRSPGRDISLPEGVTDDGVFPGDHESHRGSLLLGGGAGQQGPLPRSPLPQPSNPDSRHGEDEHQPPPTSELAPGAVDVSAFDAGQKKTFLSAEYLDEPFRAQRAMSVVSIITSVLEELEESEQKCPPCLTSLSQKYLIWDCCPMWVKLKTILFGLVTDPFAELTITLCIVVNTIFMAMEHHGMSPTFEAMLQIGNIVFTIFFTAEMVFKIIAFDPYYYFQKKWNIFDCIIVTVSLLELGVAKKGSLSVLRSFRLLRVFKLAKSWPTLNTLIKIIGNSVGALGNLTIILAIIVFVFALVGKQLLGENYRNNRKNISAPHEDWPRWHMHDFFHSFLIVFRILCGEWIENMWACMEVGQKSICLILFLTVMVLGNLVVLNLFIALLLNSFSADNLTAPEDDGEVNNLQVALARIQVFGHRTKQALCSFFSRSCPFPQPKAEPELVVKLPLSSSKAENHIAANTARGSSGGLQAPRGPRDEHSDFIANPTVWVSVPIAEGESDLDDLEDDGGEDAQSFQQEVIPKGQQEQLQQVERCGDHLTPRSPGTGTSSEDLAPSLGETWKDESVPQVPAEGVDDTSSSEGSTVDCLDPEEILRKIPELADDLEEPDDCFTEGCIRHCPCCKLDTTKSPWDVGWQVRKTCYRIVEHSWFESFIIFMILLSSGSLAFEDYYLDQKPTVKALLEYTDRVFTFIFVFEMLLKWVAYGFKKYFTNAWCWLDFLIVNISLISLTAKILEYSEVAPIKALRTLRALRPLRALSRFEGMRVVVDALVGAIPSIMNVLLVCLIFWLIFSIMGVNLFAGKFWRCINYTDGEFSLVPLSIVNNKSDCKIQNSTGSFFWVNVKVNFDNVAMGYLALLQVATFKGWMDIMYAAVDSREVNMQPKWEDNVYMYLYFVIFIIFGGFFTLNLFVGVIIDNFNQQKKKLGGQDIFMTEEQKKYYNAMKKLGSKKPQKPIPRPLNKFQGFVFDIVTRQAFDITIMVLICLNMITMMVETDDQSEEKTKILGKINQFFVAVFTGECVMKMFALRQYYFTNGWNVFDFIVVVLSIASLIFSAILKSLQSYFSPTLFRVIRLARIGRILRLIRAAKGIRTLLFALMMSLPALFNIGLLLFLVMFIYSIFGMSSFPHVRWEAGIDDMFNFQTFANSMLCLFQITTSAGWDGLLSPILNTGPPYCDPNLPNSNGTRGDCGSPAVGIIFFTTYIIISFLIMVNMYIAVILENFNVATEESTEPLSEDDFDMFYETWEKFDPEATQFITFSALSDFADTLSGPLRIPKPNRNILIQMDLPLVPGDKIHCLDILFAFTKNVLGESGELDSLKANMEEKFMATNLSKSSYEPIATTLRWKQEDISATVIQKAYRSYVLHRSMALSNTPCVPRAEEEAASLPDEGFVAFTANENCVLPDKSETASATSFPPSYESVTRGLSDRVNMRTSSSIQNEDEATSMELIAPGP

[2] = biological target: T1, Sodium channel protein type 10 subunit alpha; assay: Inhibition of Nav1.8 (unknown origin) at 10 uM by Ionflux high-throughput automated patch method
Target sequence in this assay (Q9Y5Y9 whole entry, looked up): as the sequence (Q9Y5Y9 whole entry) above

[3] = biological target: T1, Sodium channel protein type 10 subunit alpha; assay: Inhibition of human Nav1.8 with resting membrane potential at half inactivated state by PatchXpress high-throughput electrophysiology method
Target sequence in this assay (Q9Y5Y9 whole entry): as above

[4] = Clearance in rat at 1 mg/kg; type: ADME, organism-based; conditions: in vivo
[5] = Half life in rat; type: ADME; conditions: in vivo
[6] = Oral bioavailability in rat at 10 mg/kg; type: ADME, organism-based; conditions: in vivo
[7] = Kinetic solubility of the compound in pH 7.4 phosphate buffered saline measured after 2 hrs by LC/MS analysis; type: physicochemical; conditions: read-out: Kinetic_solubility
[8] = biological target: Sodium channel protein type 10 subunit alpha (Mus musculus, UniProt Q6QIY3); assay: Inhibition of mouse Nav1.8 with resting membrane potential at half inactivated state by PatchXpress high-throughput electrophysiology method
[9] = biological target: Voltage-gated inwardly rectifying potassium channel KCNH2 (Homo sapiens, UniProt Q12809); assay: Inhibition of human ERG; type: toxicity
Sequence of Voltage-gated inwardly rectifying potassium channel KCNH2 (Q12809 whole entry): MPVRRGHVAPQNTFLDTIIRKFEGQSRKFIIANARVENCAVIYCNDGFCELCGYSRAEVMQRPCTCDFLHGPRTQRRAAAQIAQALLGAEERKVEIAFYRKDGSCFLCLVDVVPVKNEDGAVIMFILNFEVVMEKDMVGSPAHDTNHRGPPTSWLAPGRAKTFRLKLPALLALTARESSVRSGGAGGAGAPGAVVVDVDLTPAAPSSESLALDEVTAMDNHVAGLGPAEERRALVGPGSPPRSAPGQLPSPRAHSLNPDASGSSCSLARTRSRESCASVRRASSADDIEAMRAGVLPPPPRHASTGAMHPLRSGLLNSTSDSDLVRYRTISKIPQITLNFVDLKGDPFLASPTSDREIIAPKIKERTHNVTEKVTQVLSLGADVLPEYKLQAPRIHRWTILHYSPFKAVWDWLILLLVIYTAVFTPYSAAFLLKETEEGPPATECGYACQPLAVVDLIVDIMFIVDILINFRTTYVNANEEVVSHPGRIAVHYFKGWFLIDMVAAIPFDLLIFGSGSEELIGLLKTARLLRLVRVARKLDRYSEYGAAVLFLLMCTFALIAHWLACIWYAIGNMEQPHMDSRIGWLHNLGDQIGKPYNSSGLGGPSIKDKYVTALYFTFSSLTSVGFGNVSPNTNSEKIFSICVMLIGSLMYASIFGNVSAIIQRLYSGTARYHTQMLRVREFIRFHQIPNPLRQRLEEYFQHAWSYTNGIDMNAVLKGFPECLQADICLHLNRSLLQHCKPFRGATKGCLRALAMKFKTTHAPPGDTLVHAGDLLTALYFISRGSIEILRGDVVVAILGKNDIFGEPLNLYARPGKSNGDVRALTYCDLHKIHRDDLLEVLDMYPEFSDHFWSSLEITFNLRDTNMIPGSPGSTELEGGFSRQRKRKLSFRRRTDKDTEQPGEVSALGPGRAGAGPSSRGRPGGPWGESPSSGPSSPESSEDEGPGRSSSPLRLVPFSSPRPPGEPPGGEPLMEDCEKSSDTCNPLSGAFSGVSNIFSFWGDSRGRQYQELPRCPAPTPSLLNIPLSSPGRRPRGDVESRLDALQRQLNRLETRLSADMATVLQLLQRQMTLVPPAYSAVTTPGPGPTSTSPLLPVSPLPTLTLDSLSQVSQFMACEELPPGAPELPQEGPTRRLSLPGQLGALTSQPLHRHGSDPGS

[10] = Protein binding in human plasma assessed as unbound fraction; type: ADME, cell-free
[11] = Stability in human liver microsomes assessed as parent compound remaining measured after 60 mins; type: ADME, Microsome; conditions: read-out: Stability
Cytochrome P450 3A4 = Cytochrome P450 3A4 (Homo sapiens, UniProt P08684); assay: Inhibition of CYP3A4 (unknown origin); type: ADME
Cytochrome P450 1A2 = biological target: T2, Cytochrome P450 1A2 (Homo sapiens, UniProt P05177); assay: Inhibition of CYP1A2 (unknown origin); type: ADME
T2 sequence (P05177 whole entry): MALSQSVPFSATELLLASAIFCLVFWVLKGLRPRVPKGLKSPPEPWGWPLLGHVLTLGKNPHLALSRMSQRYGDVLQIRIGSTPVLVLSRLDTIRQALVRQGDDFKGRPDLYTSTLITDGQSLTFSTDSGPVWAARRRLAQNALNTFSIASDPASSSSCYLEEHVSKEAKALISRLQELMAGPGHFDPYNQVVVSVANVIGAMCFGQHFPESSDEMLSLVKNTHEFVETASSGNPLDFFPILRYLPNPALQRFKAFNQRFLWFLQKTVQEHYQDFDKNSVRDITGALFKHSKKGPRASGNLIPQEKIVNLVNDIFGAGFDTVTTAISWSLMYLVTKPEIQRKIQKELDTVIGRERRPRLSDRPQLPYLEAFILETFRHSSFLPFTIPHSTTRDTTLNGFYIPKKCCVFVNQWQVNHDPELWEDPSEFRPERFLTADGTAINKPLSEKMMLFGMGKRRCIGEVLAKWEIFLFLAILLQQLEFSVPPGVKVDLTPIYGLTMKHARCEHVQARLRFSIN

[12] = Apparent permeability in MDCK-MDR1 cells; type: ADME, cell-based, Canis lupus familiaris; conditions: dog
[13] = Efflux ratio of apparent permeability in MDCK-MDR1 cells; type: ADME, cell-based, Canis lupus familiaris; conditions: dog
[14] = Clearance in dog at 1 mg/kg; type: ADME, organism-based, Canis lupus familiaris; conditions: in vivo
[15] = Clearance in cynomolgus monkey at 1 mg/kg; type: ADME, organism-based, Macaca fascicularis; conditions: in vivo
[16] = Oral bioavailability in dog at 10 mg/kg; type: ADME, organism-based, Canis lupus familiaris; conditions: in vivo
[17] = Oral bioavailability in cynomolgus monkey at 10 mg/kg; type: ADME, organism-based, Macaca fascicularis; conditions: in vivo
[18] = Volume of distribution at steady state in rat at 1 mg/kg, iv; type: ADME, organism-based; conditions: in vivo, read-out: Vdss
[19] = Volume of distribution at steady state in dog at 1 mg/kg, iv; type: ADME, organism-based, Canis lupus familiaris; conditions: in vivo, read-out: Vdss
[20] = Volume of distribution at steady state in cynomolgus monkey at 1 mg/kg, iv; type: ADME, organism-based, Macaca fascicularis; conditions: in vivo, read-out: Vdss
[21] = Ratio of drug level in rat brain to plasma at 1 mg/kg, iv measured after 60 mins; type: ADME, organism-based; conditions: read-out: BPR
[22] = biological target: Nav1.1 (sodium channel protein type 1 subunit alpha) (Homo sapiens, UniProt P35498); assay: Inhibition of Nav1.1 (unknown origin) at 30 uM relative to control; type: toxicity
[23] = biological target: Nav1.2 (sodium channel protein type 2 subunit alpha) (Homo sapiens, UniProt Q99250); assay: Inhibition of Nav1.2 (unknown origin) at 30 uM relative to control; type: toxicity
[24] = biological target: Nav1.3 (sodium channel protein type 3 subunit alpha) (Homo sapiens, UniProt Q9NY46); assay: Inhibition of Nav1.3 (unknown origin) at 30 uM relative to control; type: toxicity
[25] = biological target: Nav1.4 (sodium channel protein type 4 subunit alpha) (Homo sapiens, UniProt P35499); assay: Inhibition of Nav1.4 (unknown origin) at 30 uM relative to control; type: toxicity
Sequence of Nav1.4 (sodium channel protein type 4 subunit alpha) (P35499 whole entry): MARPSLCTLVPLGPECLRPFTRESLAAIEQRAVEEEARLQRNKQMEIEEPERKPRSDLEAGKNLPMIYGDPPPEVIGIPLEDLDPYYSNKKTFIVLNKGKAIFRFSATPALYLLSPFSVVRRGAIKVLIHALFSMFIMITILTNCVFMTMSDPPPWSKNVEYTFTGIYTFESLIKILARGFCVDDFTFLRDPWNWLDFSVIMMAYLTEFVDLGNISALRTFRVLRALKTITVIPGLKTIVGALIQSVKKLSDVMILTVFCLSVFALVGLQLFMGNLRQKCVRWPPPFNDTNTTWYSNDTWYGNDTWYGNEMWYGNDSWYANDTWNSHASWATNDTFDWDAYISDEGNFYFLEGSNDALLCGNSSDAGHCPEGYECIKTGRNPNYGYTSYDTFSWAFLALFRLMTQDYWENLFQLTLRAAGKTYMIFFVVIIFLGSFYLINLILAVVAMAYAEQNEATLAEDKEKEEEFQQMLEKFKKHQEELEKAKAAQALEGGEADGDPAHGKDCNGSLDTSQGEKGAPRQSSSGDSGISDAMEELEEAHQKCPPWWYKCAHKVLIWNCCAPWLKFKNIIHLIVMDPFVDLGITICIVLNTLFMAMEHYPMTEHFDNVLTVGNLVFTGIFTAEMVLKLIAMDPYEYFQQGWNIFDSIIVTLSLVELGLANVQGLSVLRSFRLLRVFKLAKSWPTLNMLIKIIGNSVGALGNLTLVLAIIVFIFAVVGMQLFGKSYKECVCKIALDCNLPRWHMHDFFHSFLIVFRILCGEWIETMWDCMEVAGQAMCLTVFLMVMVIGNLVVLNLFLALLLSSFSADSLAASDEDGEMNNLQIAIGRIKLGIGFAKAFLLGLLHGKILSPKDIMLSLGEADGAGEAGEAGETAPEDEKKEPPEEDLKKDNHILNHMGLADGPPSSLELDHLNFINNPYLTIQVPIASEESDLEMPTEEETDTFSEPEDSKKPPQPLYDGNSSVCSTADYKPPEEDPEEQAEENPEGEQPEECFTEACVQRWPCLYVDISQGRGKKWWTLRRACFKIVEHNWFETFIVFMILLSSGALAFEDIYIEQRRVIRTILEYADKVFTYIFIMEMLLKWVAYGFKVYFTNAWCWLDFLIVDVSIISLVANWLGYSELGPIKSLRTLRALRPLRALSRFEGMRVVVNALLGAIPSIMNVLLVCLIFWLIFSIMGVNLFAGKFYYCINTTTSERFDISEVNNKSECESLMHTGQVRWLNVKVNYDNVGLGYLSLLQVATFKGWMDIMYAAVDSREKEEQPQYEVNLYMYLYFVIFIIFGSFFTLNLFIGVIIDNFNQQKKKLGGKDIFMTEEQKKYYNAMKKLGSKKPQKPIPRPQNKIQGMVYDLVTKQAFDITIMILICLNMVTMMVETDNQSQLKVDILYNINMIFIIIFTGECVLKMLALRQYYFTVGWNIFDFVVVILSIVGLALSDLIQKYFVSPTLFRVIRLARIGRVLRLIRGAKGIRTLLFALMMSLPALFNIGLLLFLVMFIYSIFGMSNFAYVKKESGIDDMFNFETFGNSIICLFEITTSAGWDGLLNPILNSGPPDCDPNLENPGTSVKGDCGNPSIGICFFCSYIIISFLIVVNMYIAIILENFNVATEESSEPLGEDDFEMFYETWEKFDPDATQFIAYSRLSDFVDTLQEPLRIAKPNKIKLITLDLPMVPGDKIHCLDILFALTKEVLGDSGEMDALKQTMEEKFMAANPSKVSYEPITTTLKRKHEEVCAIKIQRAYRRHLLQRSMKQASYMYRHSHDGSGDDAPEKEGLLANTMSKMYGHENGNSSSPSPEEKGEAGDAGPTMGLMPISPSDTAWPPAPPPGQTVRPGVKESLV

[26] = biological target: Nav1.5 (sodium channel protein type 5 subunit alpha) (Homo sapiens, UniProt Q14524); assay: Inhibition of Nav1.5 (unknown origin) at 30 uM relative to control; type: toxicity
[27] = biological target: Nav1.6 (sodium channel protein type 8 subunit alpha) (Homo sapiens, UniProt Q9UQD0); assay: Inhibition of Nav1.6 (unknown origin) at 30 uM relative to control; type: toxicity
[28] = biological target: Nav1.7 (sodium channel protein type 9 subunit alpha) (Homo sapiens, UniProt Q15858); assay: Inhibition of Nav1.7 (unknown origin) at 30 uM relative to control; type: toxicity
[29] = biological target: T1, Sodium channel protein type 10 subunit alpha; assay: Inhibition of human Nav1.8 with resting membrane potential by PatchXpress high-throughput electrophysiology method
Target sequence in this assay (Q9Y5Y9 whole entry): as the sequence (Q9Y5Y9 whole entry) above

[30] = biological target: T1, Sodium channel protein type 10 subunit alpha; assay: Inhibition of Nav1.8 (unknown origin) over expressed in HEK cells exposed to 1st depolarizing pulse at 10 Hz train of action potential at 12 nM; type: cell-based
Target sequence in this assay (Q9Y5Y9 whole entry, looked up): as the sequence (Q9Y5Y9 whole entry) above

[31] = biological target: T1, Sodium channel protein type 10 subunit alpha; assay: Inhibition of Nav1.8 (unknown origin) over expressed in HEK cells exposed to 120th depolarizing pulse at 10 Hz train of action potential at 12 nM; type: cell-based
Target sequence in this assay (Q9Y5Y9 whole entry, looked up): as the sequence (Q9Y5Y9 whole entry) above

[32] = Inhibition of Nav1.5 (domain 1 and 2)-Nav 1.8 (domain 3 and 4) chimera (unknown origin) with resting membrane potential at half inactivated state by PatchXpress high-throughput electrophysiology method; parameters: species or system Homo sapiens

Question: For `CS(=O)(=O)c1cccc(NC(=O)c2cc(C(F)(F)F)cnc2Oc2cccnc2)c1`, which IC50 [1] is on record?
Answer: > 5000 nM

Question: And the inhibition [2]?
Answer: Active

Question: What does the source list for `COc1cc(F)ccc1Oc1ncc(C(F)(F)F)cc1C(=O)Nc1cccc(S(C)(=O)=O)c1`?
Answer: IC50 [1]: 60 nM; IC50 [3]: 14 nM; inhibition [2]: Active; clearance [4]: 16 mL/min/kg; half-life [5]: 5.6 h; bioavailability [6]: 14%

Question: With `CS(=O)(=O)c1cccc(NC(=O)c2cc(C(F)(F)F)cnc2Oc2ccc(F)cc2)c1` as the compound, how does the IC50 [1] read?
Answer: 2900 nM

Question: And the inhibition [2]?
Answer: Active

Question: For `COc1cc(F)ccc1Oc1ccncc1C(=O)Nc1cccc(S(C)(=O)=O)c1`, which IC50 [3] is on record?
Answer: > 10000 nM

Question: What about the inhibition [2] of the same compound?
Answer: inactive

Question: For `COc1cc(F)ccc1Oc1ncc(C(F)(F)F)cc1C(=O)Nc1cccc(S(C)(=N)=O)c1` (stereo not given), which IC50 [1] is on record?
Answer: 22 nM

Question: And the IC50 [3]?
Answer: 23 nM

Question: And the inhibition [2]?
Answer: Active

Question: And the solubility kinetic at 2 h [7]?
Answer: 48 µg/mL (≈ 99.3 µM)

Question: Which IC50 [1] does the source give for `CS(=O)(=O)c1cccc(NC(=O)c2cc(C(F)(F)F)cnc2Oc2c(F)cccc2F)c1` here?
Answer: > 5000 nM

Question: What about the inhibition [2] of the same compound?
Answer: Active

Question: Which IC50 [1] does the source give for `COc1cc(F)ccc1Oc1nc2ccccc2nc1C(=O)Nc1cccc(S(C)(=O)=O)c1` here?
Answer: 33 nM

Question: What about the IC50 [3] of the same compound?
Answer: 36 nM

Question: And the inhibition [2]?
Answer: Active

Question: Which IC50 [1] does the source give for `COc1cc(F)ccc1Oc1ncc(C(F)(F)F)cc1C(=O)Nc1ccnnc1` here?
Answer: 540 nM

Question: What about the IC50 [3] of the same compound?
Answer: 250 nM

Question: And the inhibition [2]?
Answer: Active

Question: What about the solubility kinetic at 2 h [7] of the same compound?
Answer: 70 µg/mL (≈ 171 µM)

Question: For `COc1cc(F)ccc1Oc1ncc(C(F)(F)F)cc1C(=O)Nc1cccc([S+](C)[O-])c1` (stereo not given), which IC50 [3] is on record?
Answer: 40 nM

Question: What about the inhibition [2] of the same compound?
Answer: Active

Question: For `CS(=O)(=O)c1cccc(NC(=O)c2cc(C(F)(F)F)cnc2Oc2ccc(F)cc2Cl)c1`, which IC50 [1] is on record?
Answer: 251 nM

Question: What about the inhibition [2] of the same compound?
Answer: Active

Question: Which IC50 [1] does the source give for `CS(=O)(=O)c1cccc(NC(=O)c2cc(C(F)(F)F)cnc2Oc2ccc(OC(F)(F)F)cc2Cl)c1` here?
Answer: 24 nM

Question: And the IC50 [3]?
Answer: 15 nM

Question: And the inhibition [2]?
Answer: Active

Question: And the solubility kinetic at 2 h [7]?
Answer: 1.5 µg/mL (≈ 2.7 µM)

Question: For `COc1cc(F)ccc1Oc1ncc(C(F)(F)F)cc1C(=O)Nc1ccncc1`, which IC50 [1] is on record?
Answer: 560 nM

Question: And the inhibition [2]?
Answer: Active

Question: And the solubility kinetic at 2 h [7]?
Answer: 19 µg/mL (≈ 46.6 µM)

Question: Which IC50 [3] does the source give for `COc1cc(F)ccc1Oc1ncc(C(F)(F)F)cc1C(=O)NCc1cccnc1N1CCOCC1` here?
Answer: > 10000 nM

Question: What about the inhibition [2] of the same compound?
Answer: inactive

Question: Which IC50 [3] does the source give for `Cc1cc(OC(F)(F)F)ccc1Oc1ncc(C(F)(F)F)cc1C(=O)Nc1cccc(S(C)(=O)=O)c1` here?
Answer: 35 nM

Question: And the inhibition [2]?
Answer: Active

Question: What about the solubility kinetic at 2 h [7] of the same compound?
Answer: 1.4 µg/mL (≈ 2.62 µM)

Question: Which IC50 [3] does the source give for `CS(=N)(=O)c1cccc(NC(=O)c2cc(C(F)(F)F)cnc2Oc2ccc(F)cc2Cl)c1` (stereo not given) here?
Answer: 12 nM

Question: And the inhibition [2]?
Answer: Active

Question: What about the solubility kinetic at 2 h [7] of the same compound?
Answer: 26 µg/mL (≈ 53.3 µM)

Question: What about the clearance [4] of the same compound?
Answer: 5.9 mL/min/kg

Question: What about the bioavailability [6] of the same compound?
Answer: 86%

Question: And the IC50 [8]?
Answer: 660 nM

Question: What about the IC50 [9] of the same compound?
Answer: > 30000 nM

Question: And the fraction unbound [10]?
Answer: 0.073

Question: What about the remaining at 1 h [11] of the same compound?
Answer: > 95%

Question: And the INH (Cytochrome P450 3A4)?
Answer: > 30 µM

Question: What about the INH (Cytochrome P450 1A2) of the same compound?
Answer: > 30 µM

Question: And the Papp [12]?
Answer: 15.5 ×10⁻⁶ cm/s

Question: And the efflux ratio [13]?
Answer: 0.8

Question: And the clearance [14]?
Answer: 3.6 mL/min/kg

Question: And the clearance [15]?
Answer: 2.5 mL/min/kg

Question: What about the bioavailability [16] of the same compound?
Answer: 61%

Question: What about the bioavailability [17] of the same compound?
Answer: 98%

Question: And the Vd [18]?
Answer: 1.9 L/kg

Question: And the Vd [19]?
Answer: 2 L/kg

Question: What about the Vd [20] of the same compound?
Answer: 2.9 L/kg

Question: What about the Kp at 1 h [21] of the same compound?
Answer: 0.89

Question: And the inhibition at 30 µM [22]?
Answer: < 25%

Question: What about the inhibition at 30 µM [23] of the same compound?
Answer: < 25%

Question: What about the inhibition at 30 µM [24] of the same compound?
Answer: < 25%

Question: What about the inhibition at 30 µM [25] of the same compound?
Answer: < 25%

Question: And the inhibition at 30 µM [26]?
Answer: < 25%

Question: And the inhibition at 30 µM [27]?
Answer: < 25%

Question: What about the inhibition at 30 µM [28] of the same compound?
Answer: < 25%

Question: What about the IC50 [29] of the same compound?
Answer: 43 nM

Question: And the inhibition [30]?
Answer: 25.4%

Question: What about the inhibition [31] of the same compound?
Answer: 24.9%

Question: And the IC50 [32]?
Answer: 9310 nM

Question: Which results are given for `CS(=O)(=O)c1cccc(NC(=O)c2cc(C(F)(F)F)cnc2Oc2cc(F)cc(F)c2)c1`?
Answer: IC50 [1]: 1300 nM; inhibition [2]: Active

Question: For `COc1cc(F)ccc1Oc1ncccc1C(=O)Nc1cccc(S(C)(=O)=O)c1`, which IC50 [3] is on record?
Answer: > 10000 nM

Question: And the inhibition [2]?
Answer: inactive

Question: What does the source list for `CS(=O)(=O)c1cccc(NC(=O)c2cc(C(F)(F)F)cnc2Oc2ccc(F)cc2F)c1`?
Answer: IC50 [1]: 87 nM; inhibition [2]: Active; solubility kinetic at 2 h [7]: 0.3 µg/mL (≈ 0.635 µM)
